According to US7879907B2, “3-phenylpropanoic compound activators of receptors of PPAR type and pharmaceutical/cosmetic compositions comprised thereof” (Galderma Research & Development, priority 2007, dated 2011):

Biological target: T1, PPARγ (Gal-hPPAR) (Homo sapiens, UniProt P37231)
T1 construct: The reporter is printed as ERE-βGlob-Luc-SV-Neo
T1 sequence (P37231 238-505 limits assumed): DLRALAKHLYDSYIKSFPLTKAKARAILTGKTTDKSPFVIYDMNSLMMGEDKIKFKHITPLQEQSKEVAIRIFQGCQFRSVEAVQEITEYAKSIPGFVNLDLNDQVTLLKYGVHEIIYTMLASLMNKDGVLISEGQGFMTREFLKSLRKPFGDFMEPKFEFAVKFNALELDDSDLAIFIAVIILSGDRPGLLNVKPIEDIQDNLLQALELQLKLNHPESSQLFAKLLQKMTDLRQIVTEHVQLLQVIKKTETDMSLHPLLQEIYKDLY
Assay: Cross-curve PPAR transactivation test (luciferase reporter, HeLN cells), PPARγ
Assay type: cell-based
Settings: HeLN stable transfectants; Schild regression against reference agonist; apparent Kd; read-out: PPAR gamma Kd app
Description: The activation of PPAR receptors with an agonist (activator) in HeLN cells leads to the expression of a reporter gene, luciferase, which, in the presence of a substrate, generates light. The modulation of the PPAR receptors is measured by quantifying the luminescence produced after incubating the cells in the presence of a reference agonist. The ligands displace the agonist from its site. The measurement of the activity is performed by quantifying the light produced. This measurement makes it possible to determine the modulatory activity of the compounds according to the invention by determining the constant that is the affinity of the molecule for the PPAR receptor. Since this value can fluctuate depending on the basal activity and the expression of the receptor, it is referred to as Kd apparent (KdApp in nM).
To determine this constant, “cross curves” of the test product against a reference agonist are produced in a 96-well plate: 10 concentrations of the test product plus a concentration 0 are arranged in a line, and 7 concentrations of the agonist plus a concentration 0 are arranged in a column. This is 88 measurement points for 1 product and 1 receptor. […]
The various dilutions of the test products and of the reference ligand are added at a rate of 5 μl per well. […] After 5 minutes, the plates are read by the luminescence detector.

Work on `CCCCOc1cc(CCC(=O)O)ccc1CCCc1ccc(OS(=O)(=O)CCCC)c(OC)c1` [Example 5, 3-(4-{3-[4-(butane-1-sulfonyloxy)-3-methoxyphenyl]propyl}-3-butoxyphenyl)propanoic acid] yielded a Kd of 8 nM.
